# In patent publication US6664273B2, “Piperidine based MCH antagonists for treatment of obesity and CNS disorders” (Schering Corporation, priority 2001, dated 2003):
# Biological target: T1, MCH receptor (Homo sapiens, UniProt Q99705)
# T1 construct: expressed in transfected cells; host or cells: CHO cells
# Test: MCH Receptor Binding Assay
# Conditions: [125I]-MCH, SPA, membranes from CHO cells expressing the MCH receptor
# Procedure: Membranes from CHO cells expressing the MCH receptor were prepared by lysing cells with 5 mM HEPES for 15 min at 4C. Cell lysates were centrifuged ([…], 15 min) and the pellet was re-suspended in 5 mM HEPES. For each 96-well plate (Microlite, Dynex Technologies), 1 mg of cell membranes were incubated with 10 mg of wheat germ agglutinin SPA beads (Amersham) for 5 min at 4 C in a volume of 10 ml of binding buffer (25 mM HEPES, 10 mM MGCl2, 10 mM NaCl, 5 mM MnCl2, 0.1% BSA). The membrane/bead mixture was centrifuged (1500×g, 3.5 min), the supernatant was aspirated, and the pellet was re-suspended in 10 ml binding buffer. The centrifugation, aspiration and re-suspension were then repeated. The membrane/bead mixture (100 μl) was then added to 96-well plates containing 50 μl of 500 pM [^125I]-MCH (NEN) and […] of the appropriate concentration of compound (4× the desired final concentration). Nonspecific binding was determined by including 1 μM MCH in the binding reaction. The binding reaction was incubated at room temperature for 2 h. Plates were then analyzed in a TOPCOUNT microplate scintillation counter (Packard). Data was analyzed and Ki values were determined using GraphPad Prism.
# T1 sequence (Q99705 whole entry): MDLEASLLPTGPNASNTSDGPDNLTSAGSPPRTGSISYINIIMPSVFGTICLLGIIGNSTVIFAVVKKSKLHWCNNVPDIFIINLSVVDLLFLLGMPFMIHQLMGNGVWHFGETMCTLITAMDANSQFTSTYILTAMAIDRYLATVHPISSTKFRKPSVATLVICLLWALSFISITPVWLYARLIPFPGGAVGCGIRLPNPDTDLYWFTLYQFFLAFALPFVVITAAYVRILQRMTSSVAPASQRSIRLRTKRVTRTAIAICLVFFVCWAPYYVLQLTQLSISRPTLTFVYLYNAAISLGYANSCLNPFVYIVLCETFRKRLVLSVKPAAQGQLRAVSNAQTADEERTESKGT
row,Ki,Compound
1,0.0086 µM,CN(CC(=O)Nc1cc(Cl)cc(Cl)c1)C1(c2ccc(-c3cccc(C#N)c3)cc2)CCN(C2CCCC2)CC1
2,0.077 µM,COc1cccc(-c2ccc(C3(NCC(=O)Nc4ccc(F)c(Cl)c4)CCN(C4CCCC4)CC3)cc2)c1

row,Compound,Ki
1,CS(=O)(=O)c1ccc(CN2CCC(OCC(=O)Nc3cc(Cl)cc(Cl)c3)(c3ccc(-c4cccc(C#N)c4)cc3)CC2)cc1,0.076 µM
